From EP0823908B1, “PYRIDO[2,3-d]PYRIMIDINES FOR INHIBITING PROTEIN TYROSINE KINASE MEDIATED [sequence] PROLIFERATION” (Warner-Lambert Company LLC, priority 1995, dated 1996)

Tested on: PDGF receptor
Test: PDGF receptor autophosphorylation in rat aorta smooth muscle cells
Type: cell-based
Details: read-out: Inhibition of PDGF-Stimulated Receptor Auto Phosphorylation in Rat Aortic Smooth Muscle Cells (IC50); PDGF-BB 30 ng/mL for 5 minutes after 2 hours with compound
Experimental: Rat aorta smooth muscle cells (RASMC) were isolated from the thoracic aorta of rats and explanted according to the method of Ross, J. Cell. Biol., 30:172-186 (1971). Cells were grown in Dulbecco's modified Eagle's medium (DMEM, Gibco) containing 10% fetal calf serum (FBS, Hyclone, Logan, Utah), 1% glutamine (Gibco) and 1% penicillin/streptomycin (Gibco). Cells were identified as smooth muscle cells by their "hill and valley" growth pattern and by fluorescent staining with a monoclonal antibody specific for SMC ∝-actin (Sigma). RASMC were used between passages 5 and 20 for all experiments. Test compounds were prepared in dimethylsulfoxide (DMSO) in order to achieve consistency in the vehicle and to ensure compound solubility. Appropriate DMSO controls were simultaneously evaluated with the test compounds.
RASMC were grown to confluency in 100 mm dishes. Growth medium was removed and replaced with serum-free medium and cells were incubated at 37°C for an additional 24 hours. Test compounds were then added directly to the medium and cells incubated for an additional 2 hours. After 2 hours, PDGF-BB was added at a final concentration of 30 ng/mL for 5 minutes at 37°C to stimulated autophosphorylation of the PDGF receptor. Following growth factor treatment, the medium was removed, and cells were washed with cold phosphate-buffered saline and immediately lysed with 1 mL of lysis buffer (50 mM HEPES[pH 7.5], 150 mM NaCl, 10% glycerol, 1% Triton X-100, 1 mM EDTA, 1 mMEGTA, 50 mM NaF, 1 mM sodium orthovanadate, 30 mM p-nitrophenyl phosphate, 10 mM sodium pyrophosphate, 1 mM phenylmethyl sulfonyl fluoride, 10 µg/mL aprotinin, and 10 µg/mL leupeptin). Lysates were centrifuged at 10,000 × g for 10 minutes. […] Following the incubation, protein-A-sepharose beads were added for 2 hours with continuous mixing, and immune complexes bound to the beads washed four times with 1 mL lysis wash buffer. Immune complexes were solubilized in 30 µL of Laemmli sample buffer and electrophoresed in 4-20% SDS polyacrylamide gels. Following electrophoresis, separated proteins were transferred to nitrocellulose and immunoblotted with anti-phosphotyrosine antiserum. […] IC50 values were generated from the densitometric data.

In the case of `Cn1c(=O)c(-c2c(Cl)cccc2Cl)cc2cnc(Nc3ccccc3)nc21` [Example 54, 6-(2,6-Dichlorophenyl)-8-methyl-2-phenylamino-8H-pyrido[2,3-d]pyrimidin-7-one], the IC50 is reported as 16 nM.
